Values of other authors, collected in patent US10501455B2, “Inhibitors of leukotriene A4 hydrolase” (Celtaxsys, Inc., priority 2013, dated 2019).

Tests used:
[1] = target: T1, LTA4-h (Mus musculus, UniProt P24527); details: oral administration, mouse blood ex vivo; cited from earlier work
T1 construct: host or cells: mouse blood ex vivo
T1 sequence (P24527 1-611): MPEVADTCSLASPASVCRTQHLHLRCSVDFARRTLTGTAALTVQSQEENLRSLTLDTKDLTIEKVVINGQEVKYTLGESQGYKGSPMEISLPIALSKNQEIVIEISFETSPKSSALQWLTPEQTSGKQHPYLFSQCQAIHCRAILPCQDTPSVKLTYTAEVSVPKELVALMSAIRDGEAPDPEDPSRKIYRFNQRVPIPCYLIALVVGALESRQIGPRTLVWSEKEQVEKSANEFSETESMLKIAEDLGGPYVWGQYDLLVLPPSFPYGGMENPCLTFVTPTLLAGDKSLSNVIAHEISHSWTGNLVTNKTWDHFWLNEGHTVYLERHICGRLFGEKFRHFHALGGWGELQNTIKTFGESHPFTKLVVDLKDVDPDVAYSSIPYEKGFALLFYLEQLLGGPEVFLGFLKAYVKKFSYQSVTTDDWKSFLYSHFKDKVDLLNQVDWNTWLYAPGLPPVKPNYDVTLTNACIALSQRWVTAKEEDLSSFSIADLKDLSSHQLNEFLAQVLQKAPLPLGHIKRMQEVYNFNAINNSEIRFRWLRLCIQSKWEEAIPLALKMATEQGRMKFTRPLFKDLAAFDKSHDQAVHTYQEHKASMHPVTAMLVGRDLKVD

[2] = target: T2, LTA4-h (Rattus norvegicus, UniProt P30349); details: oral administration, rat peritoneum in vivo; cited from earlier work
T2 construct: host or cells: rat peritoneum in vivo
T2 sequence (P30349 1-611): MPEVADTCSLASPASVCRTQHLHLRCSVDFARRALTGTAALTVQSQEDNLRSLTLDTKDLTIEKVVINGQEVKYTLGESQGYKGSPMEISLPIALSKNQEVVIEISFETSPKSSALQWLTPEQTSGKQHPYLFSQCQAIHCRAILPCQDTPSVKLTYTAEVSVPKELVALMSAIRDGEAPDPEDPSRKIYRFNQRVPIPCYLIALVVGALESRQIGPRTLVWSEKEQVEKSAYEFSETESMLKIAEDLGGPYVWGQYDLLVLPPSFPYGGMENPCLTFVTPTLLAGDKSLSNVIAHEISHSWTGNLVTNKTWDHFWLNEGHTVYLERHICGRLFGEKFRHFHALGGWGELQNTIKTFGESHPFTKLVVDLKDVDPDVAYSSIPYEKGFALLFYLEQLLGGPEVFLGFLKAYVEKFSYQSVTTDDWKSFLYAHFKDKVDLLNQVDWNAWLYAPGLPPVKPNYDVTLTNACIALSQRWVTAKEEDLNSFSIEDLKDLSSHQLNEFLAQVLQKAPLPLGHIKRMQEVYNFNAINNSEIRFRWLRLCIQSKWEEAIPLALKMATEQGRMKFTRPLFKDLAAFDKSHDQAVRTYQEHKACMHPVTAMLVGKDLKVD

[3] = system: colitis; details: eight weeks of treatment, cotton top tamarins; cited from earlier work

## CN(CCCOc1ccc(Cc2ccccc2)cc1)CCC(=O)O.Cl [SC57461]
[1]
  inhibition of ionophore-induced LTB4 production: caused inhibition
[2]
  inhibition of ionophore-induced LTB4 production: caused inhibition
[3]
  colitis symptoms: significantly improved colitis symptoms
